Experimental data taken from patent EP4796540A2, “N-SULFONAMIDE NITROGEN-CONTAINING FUSED HETEROCYCLIC COMPOUND, AND APPLICATION THEREOF” (priority 2023, dated 2025).
Values joined by “and” are separate entries in the source; they are usually repeats but may differ in a detail not shown here. Equal values may be shown once.

Key:
[1] = In vivo pharmacokinetic study in rats; conditions: rat, plasma; SD rats (male), IV 1 mg/kg; read-out: Clint
Protocol: 1. Experimental purpose: To test the pharmacokinetics of compounds in SD rats. 2. Experimental instrument and materials: Animal: SD rats (male) Instrument: Intravenous injection: 40% HP-β-CD in water; intragastric administration: 0.2% HPC + 0.5% Tween80 in water. 6 male rats. Fasting treatment was performed in the evening before the administration, with free access to water. During the experiment, the rats were allowed to eat and drink freely, and administered by intravenous injection or gavage. After administration, the animal status was observed, and abnormal behaviors were recorded. Blood was collected via jugular vein puncture at 0.0833, 0.25, 1, 2, 4, 8, and 24 hours after intravenous injection; Blood was collected via jugular vein puncture at 0.25, 0.5, 1, 2, 4, 6, 8, and 24 hours after intragastric administration. 50 µL of plasma sample was taken and added with 500 µL of acetonitrile (containing dexamethasone as an internal standard) to precipitate proteins. The mixture was centrifuged at 4°C and 4000 rpm for 20 minutes, and 300 µL of the supernatant was taken and mixed with 300 µL of Watsons aqueous solution in a 96-well plate. […] Unknown samples were calculated by the standard curve. Pharmacokinetic parameters were calculated by the non-compartmental analysis model of WinNonlin 8.2 software and were presented in a report, including Clint, Cmax, AUC, etc. […]

[2] = tested on: human gastric cancer NUGC-3 xenograft; test: In vivo efficacy study in human gastric cancer NUGC-3 xenograft mouse model; set-up: species or system NUNU mice; conditions: mice; for Tumor volume (mm^3) (at 19 days): Mean ± SEM
Protocol: 1. Experimental purpose: To test the in vivo anti-tumor activity of compounds in the subcutaneous human gastric cancer NUGC-3 xenograft model in female NUNU mice. 2. Experimental materials: Animals: 6 to 8 weeks old female NUNU mice; Reagents:
Cpd-A vehicle: 0.2% HPC, 0.5% Tween80 in water (w/v/v); Cpd-2 vehicle: 5% DMSO/10% Solutol HS 15/85% pH 4.65 ± 0.10 acetate buffer.
Cell culture: NUGC-3 cells were cultured in RPMI-1640 medium containing 10% FBS.
Molding and grouping: NUGC-3 cells in the exponential growth phase (5 × 10^6) were harvested, resuspended in 0.2 mL of PBS and Matrigel (1:1), and then inoculated subcutaneously into the right flank of NUNU mice to establish a subcutaneous xenograft model. Mice were observed daily for healthy status and tumor growth after cell inoculation. On the 5th day after inoculation, 36 animals were selected, grouped, and the tumor volume of the animals in the group was approximately 150.0 mm^3. The study was divided into 6 groups, with 6 mice in each group, and the administration was performed on the same day (see Table 10).
4. Experimental design: Table 10 is the grouping and administration information for the efficacy experiment. Mice in the G1 group were orally administered vehicle control (5% DMSO/10% Solutol HS 15/85% pH 4.65 ± 0.10 acetate buffer) once a day for a total of 19 days. Mice in the G2 group were orally administered Cpd-A once a day at a dose of 50 mg/kg for a total of 19 days. Mice in the G3 group were orally administered Cpd-A once a day at a dose of 100 mg/kg for a total of 19 days. Mice in the G4 group were orally administered Cpd-2 once a day at a dose of 25 mg/kg for a total of 19 days. Mice in the G5 group were orally administered Cpd-2 once a day at a dose of 50 mg/kg for a total of 19 days. Mice in the G6 group were orally administered Cpd-2 once a day at a dose of 100 mg/kg for a total of 19 days. Table 10. In vivo efficacy study design of NUGC-3 xenograft mouse model
Experimental observation: The health status and mortality of the animals were monitored daily. Routine checks included observing the effect of tumor growth and drug treatment on animals' normal behavior such as mobility, food and water consumption, body weight gain/loss, eye/hair matting and any other abnormal effect. The number of deaths and side effects of the animals in the group were recorded based on the number of the animals in each group. Clinical symptoms observed during the trial were recorded in the raw data. Tumor volume calculation formula: Tumor volume (mm^3) = 0.5 × (tumor long diameter × tumor short diameter^2). During the research process, the entire administration process as well as tumor and body weight measurements were conducted in a Laminar Flow Cabinet.
Statistical analysis: Tumor volume and animal body weight results are expressed in Mean ± SEM. Tumor volumes between different groups were statistically compared and analyzed. All statistical analyses were completed in GraphPad Prism 8.0. The one-way ANOVA method was used to compare whether there was a significant difference in tumor volume or tumor weight between groups, where p ≥ 0.05 was considered as having no significant difference, p < 0.05 was considered as having a significant difference, and p < 0.001 was considered as having an extremely significant difference.

SMILES: [2H]C([2H])([2H])Oc1nc(C(=O)NS(C)(=O)=O)ccc1NCC#Cc1cc2c(N[C@@H]3CCN(C)C[C@@H]3F)cccn2c1CC(F)(F)F [Cpd-2, 5-((3-(8-(((3S,4R)-3-Fluoro-1-methylpiperidin-4-yl)amino)-3-(2,2,2-trifluoroethyl)indolizin-2-yl)prop-2-yn-1-yl)amino)-6-(methoxy-d3)-N-(methylsulfonyl)picolinamide]
- clearance [1]: 3.3 mL/min/kg
- TGI (%) (at 19 days) ([2]; 25 mg/kg PO QD*19 Days): 65.1%
- Tumor volume (mm^3) (at 19 days) ([2]; 25 mg/kg PO QD*19 Days): 615.1 mm^3 and 615.1 ± 157.6 mm^3
- TGI (%) (at 19 days) ([2]; 50 mg/kg PO QD*19 Days): 96.1%
- Tumor volume (mm^3) (at 19 days) ([2]; 50 mg/kg PO QD*19 Days): 202.2 mm^3 and 202.2 ± 57.9 mm^3
- TGI (%) (at 19 days) ([2]; 100 mg/kg PO QD*19 Days): 103.6%
- Tumor volume (mm^3) (at 19 days) ([2]; 100 mg/kg PO QD*19 Days): 102.5 mm^3 and 102.5 ± 42.1 mm^3
